# Reference: the supplement of paper PMC10307832
# Experiments:
# Assay in all cases: relative viability (nuclei count vs DMSO), 5 days (fraction); higher = more cells survive
# [1] = tested on: NCI-H1975
# Summary of the method: (§1)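 Lung cancer cell lines were seeded in 1536-well plates and dosed by pin tool the next day, with either a single drug or a fixed anchor-drug dose combined with five library-drug doses (not always all listed) spaced in √10 steps. Five days later, one step fixed the cells and stained their nuclei (final 0.05% Triton X-100, 1% formaldehyde, 1 ug/ml Hoechst), and nuclei were counted on 4× images. Relative viability is the nuclei count in treated wells divided by the count in vehicle wells, and each value is the median of duplicate plates.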
# [2] = tested on: SW 900
# Summary of the method: as §1
# [3] = tested on: NCI-H23
# Summary of the method: as §1
# [4] = tested on: NCI-H1666
# Summary of the method: as §1
# [5] = tested on: ChaGo-K-1
# Summary of the method: as §1
# [6] = tested on: NCI-H1755
# Summary of the method: as §1
# [7] = tested on: NCI-H1792
# Summary of the method: as §1
# [8] = tested on: NCI-H596
# Summary of the method: as §1
# [9] = tested on: H3255
# Summary of the method: as §1
# [10] = tested on: SK-MES-1
# Summary of the method: as §1
# [11] = tested on: NCI-H1734
# Summary of the method: as §1
# [12] = tested on: LOU-NH91
# Summary of the method: as §1
# [13] = tested on: PC-3 [JPC-3]
# Summary of the method: as §1
# [14] = tested on: NCI-H1563
# Summary of the method: as §1
# [15] = tested on: EKVX
# Summary of the method: as §1
# [16] = tested on: A-427
# Summary of the method: as §1
# [17] = tested on: NCI-H441
# Summary of the method: as §1
# [18] = tested on: LK-2
# Summary of the method: as §1
# [19] = tested on: EMC-BAC-2
# Summary of the method: as §1
# [20] = tested on: NCI-H2170
# Summary of the method: as §1
# [21] = tested on: HCC-366
# Summary of the method: as §1
# [22] = tested on: COR-L 105
# Summary of the method: as §1
# [23] = tested on: NCI-H520
# Summary of the method: as §1
structure (smiles),measurement,setting,value
CC1(C)CCC(c2ccc(Cl)cc2)=C(CN2CCN(c3ccc(C(=O)NS(=O)(=O)c4ccc(N[C@H](CCN5CCOCC5)CSc5ccccc5)c(S(=O)(=O)C(F)(F)F)c4)cc3)CC2)C1 [Navitoclax] + Nc1nc2[nH]cc(CCc3ccc(C(=O)N[C@@H](CCC(=O)O)C(=O)O)cc3)c2c(=O)[nH]1 [Pemetrexed] (partner 0.2 µM),relative viability,[1]; first compound 0.005 µM,0.292
same,relative viability,[1]; first compound 0.01581 µM,0.312
same,relative viability,[1]; first compound 0.05 µM,0.343
same,relative viability,[1]; first compound 0.1581 µM,0.301
same,relative viability,[1]; first compound 0.5 µM,0.299
same,relative viability,[2]; first compound 0.005 µM,0.471
same,relative viability,[2]; first compound 0.01581 µM,0.476
same,relative viability,[2]; first compound 0.1581 µM,0.452
same,relative viability,[2]; first compound 0.5 µM,0.441
same,relative viability,[3]; first compound 0.005 µM,0.594
same,relative viability,[3]; first compound 0.01581 µM,0.665
same,relative viability,[3]; first compound 0.05 µM,0.707
same,relative viability,[3]; first compound 0.1581 µM,0.603
same,relative viability,[3]; first compound 0.5 µM,0.645
same,relative viability,[4]; first compound 0.005 µM,0.867
same,relative viability,[4]; first compound 0.01581 µM,0.964
same,relative viability,[4]; first compound 0.05 µM,0.836
same,relative viability,[4]; first compound 0.1581 µM,0.831
same,relative viability,[4]; first compound 0.5 µM,0.966
same,relative viability,[5]; first compound 0.005 µM,0.258
same,relative viability,[5]; first compound 0.01581 µM,0.26
same,relative viability,[5]; first compound 0.05 µM,0.25
same,relative viability,[5]; first compound 0.1581 µM,0.268
same,relative viability,[5]; first compound 0.5 µM,0.265
same,relative viability,[6]; first compound 0.005 µM,0.371
same,relative viability,[6]; first compound 0.01581 µM,0.419
same,relative viability,[6]; first compound 0.05 µM,0.426
same,relative viability,[6]; first compound 0.1581 µM,0.351
same,relative viability,[6]; first compound 0.5 µM,0.433
same,relative viability,[7]; first compound 0.005 µM,0.917
same,relative viability,[7]; first compound 0.01581 µM,0.82
same,relative viability,[7]; first compound 0.1581 µM,0.716
same,relative viability,[7]; first compound 0.5 µM,0.738
same,relative viability,[8]; first compound 0.005 µM,0.418
same,relative viability,[8]; first compound 0.01581 µM,0.459
same,relative viability,[8]; first compound 0.05 µM,0.5
same,relative viability,[8]; first compound 0.1581 µM,0.439
same,relative viability,[8]; first compound 0.5 µM,0.39
same,relative viability,[9]; first compound 0.005 µM,0.664
same,relative viability,[9]; first compound 0.01581 µM,0.648
same,relative viability,[9]; first compound 0.05 µM,0.571
same,relative viability,[9]; first compound 0.1581 µM,0.581
same,relative viability,[9]; first compound 0.5 µM,0.545
same,relative viability,[10]; first compound 0.005 µM,0.913
same,relative viability,[10]; first compound 0.01581 µM,1.05
same,relative viability,[10]; first compound 0.05 µM,1.03
same,relative viability,[10]; first compound 0.1581 µM,0.884
same,relative viability,[10]; first compound 0.5 µM,0.927
same,relative viability,[11]; first compound 0.005 µM,0.394
same,relative viability,[11]; first compound 0.01581 µM,0.421
same,relative viability,[11]; first compound 0.1581 µM,0.367
same,relative viability,[11]; first compound 0.5 µM,0.381
same,relative viability,[12]; first compound 0.005 µM,0.308
same,relative viability,[12]; first compound 0.01581 µM,0.304
same,relative viability,[12]; first compound 0.05 µM,0.26
same,relative viability,[12]; first compound 0.1581 µM,0.285
same,relative viability,[12]; first compound 0.5 µM,0.219
same,relative viability,[13]; first compound 0.005 µM,1.12
same,relative viability,[13]; first compound 0.01581 µM,1.26
same,relative viability,[13]; first compound 0.05 µM,0.974
same,relative viability,[13]; first compound 0.1581 µM,1.02
same,relative viability,[13]; first compound 0.5 µM,0.754
same,relative viability,[14]; first compound 0.005 µM,0.656
same,relative viability,[14]; first compound 0.01581 µM,0.739
same,relative viability,[14]; first compound 0.05 µM,0.608
same,relative viability,[14]; first compound 0.1581 µM,0.805
same,relative viability,[14]; first compound 0.5 µM,0.861
same,relative viability,[15]; first compound 0.005 µM,0.433
same,relative viability,[15]; first compound 0.01581 µM,0.389
same,relative viability,[15]; first compound 0.05 µM,0.4
same,relative viability,[15]; first compound 0.1581 µM,0.387
same,relative viability,[15]; first compound 0.5 µM,0.366
same,relative viability,[16]; first compound 0.005 µM,1.01
same,relative viability,[16]; first compound 0.01581 µM,0.896
same,relative viability,[16]; first compound 0.05 µM,0.968
same,relative viability,[16]; first compound 0.1581 µM,1.14
same,relative viability,[16]; first compound 0.5 µM,1.04
same,relative viability,[17]; first compound 0.005 µM,0.238
same,relative viability,[17]; first compound 0.01581 µM,0.24
same,relative viability,[17]; first compound 0.05 µM,0.258
same,relative viability,[17]; first compound 0.1581 µM,0.232
same,relative viability,[17]; first compound 0.5 µM,0.296
same,relative viability,[18]; first compound 0.005 µM,0.35
same,relative viability,[18]; first compound 0.01581 µM,0.244
same,relative viability,[18]; first compound 0.05 µM,0.281
same,relative viability,[18]; first compound 0.1581 µM,0.332
same,relative viability,[18]; first compound 0.5 µM,0.316
same,relative viability,[19]; first compound 0.005 µM,0.433
same,relative viability,[19]; first compound 0.01581 µM,0.437
same,relative viability,[19]; first compound 0.05 µM,0.408
same,relative viability,[19]; first compound 0.1581 µM,0.423
same,relative viability,[19]; first compound 0.5 µM,0.419
same,relative viability,[20]; first compound 0.005 µM,0.292
same,relative viability,[20]; first compound 0.01581 µM,0.272
same,relative viability,[20]; first compound 0.05 µM,0.273
same,relative viability,[20]; first compound 0.1581 µM,0.266
same,relative viability,[20]; first compound 0.5 µM,0.254
same,relative viability,[21]; first compound 0.005 µM,0.136
same,relative viability,[21]; first compound 0.01581 µM,0.167
same,relative viability,[21]; first compound 0.1581 µM,0.175
same,relative viability,[21]; first compound 0.5 µM,0.145
same,relative viability,[22]; first compound 0.005 µM,0.979
same,relative viability,[22]; first compound 0.01581 µM,1.35
same,relative viability,[22]; first compound 0.05 µM,0.921
same,relative viability,[22]; first compound 0.1581 µM,1.13
same,relative viability,[22]; first compound 0.5 µM,1.17
same,relative viability,[23]; first compound 0.005 µM,0.713
same,relative viability,[23]; first compound 0.01581 µM,0.743
same,relative viability,[23]; first compound 0.05 µM,0.699
same,relative viability,[23]; first compound 0.1581 µM,0.571
same,relative viability,[23]; first compound 0.5 µM,0.681
